Literature values in article PMC6225228, “Design, Synthesis and Evaluation of N-pyrazinylbenzamides as Potential Antimycobacterial Agents” (Molecules : A Journal of Synthetic Chemistry and Natural …, 2018).
Read-outs that look alike come from different tables or passages of the source. Marks after values point to notes of the source that are not given here.

What was measured:
[1] = tested on: Mycobacterium tuberculosis H37Rv (Mtb); conditions: Šula's semisynthetic medium, cited from earlier work
[2] = tested on: Mycobacterium tuberculosis H37Rv (Mtb); conditions: cited from earlier work
[3] = pH = 5.6, turbidity, first value

| SMILES | Amides Inhibition (%) at 6.25 μg/mL (TAACF) [2] | other results |
| --- | --- | --- |
| O=C(Nc1ccc(Br)cc1)c1cnc(Cl)cn1 [Amide R1=5-Cl R2=4-Br] |  | Amides MIC [1, 3]: 3.13 ^c [18] μg/mL |
| O=C(Nc1ccc(O)cc1)c1cnc(Cl)cn1 [Amide R1=5-Cl R2=4-OH] |  | Amides MIC [1, 3]: 3.13 µg/mL; Amides MIC (value in parentheses) ([1]; pH = 5.6, turbidity, second value in parentheses): 12.5 µg/mL |
| O=C(Nc1ccccc1Cl)c1cncc(Cl)n1 [Amide R1=6-Cl R2=2-Cl] |  | Amides MIC ([1]; pH = 5.6, MABA): 100 ^d [34] μg/mL |
| COc1ccccc1NC(=O)c1cncc(Cl)n1 [Amide R1=6-Cl R2=2-OCH3] | 6 [35] % |  |
| O=C(Nc1cccc(C(F)(F)F)c1)c1cncc(Cl)n1 [Amide R1=6-Cl R2=3-CF3] | 77 [32] % |  |
| O=C(Nc1cccc(Cl)c1)c1cncc(Cl)n1 [Amide R1=6-Cl R2=3-Cl] | 14 [33] % |  |
| COc1cccc(NC(=O)c2cncc(Cl)n2)c1 [Amide R1=6-Cl R2=3-OCH3] | 2 [31] % |  |
| Cc1ccc(NC(=O)c2cncc(Cl)n2)cc1 [Amide R1=6-Cl R2=4-CH3] | 71 [32] % |  |
| O=C(Nc1ccc(Cl)cc1)c1cncc(Cl)n1 [Amide R1=6-Cl R2=4-Cl] | 65 [33] % |  |
| O=C(Nc1ccccc1)c1cncc(Cl)n1 [Amide R1=6-Cl R2=H] | 32 [31] % | Amides MIC ([1]; pH = 5.6, MABA): 25 ^d [34] μg/mL |
| O=C(Nc1ccccc1Cl)c1cnccn1 [Amide R1=H R2=2-Cl] |  | Amides MIC ([1]; pH = 5.6, growth indicated by turbidity): 50 ^c [19] μg/mL |
